Test results as given in patent publication US8193191B2, “Urotensin II receptor antagonists” (Janssen Pharmaceutica N.V., priority 2006, dated 2012).
Like-named read-outs stand apart in the source and are kept apart here.

Assays:
[1] = molecular target: T1, rat GPR14 (U-II receptor) (Rattus norvegicus, UniProt P49684); test: Rat UII Calcium Mobilization FLIPR Assay; format: cell-based; settings: for inhibition at 10 µM / inhibition at 50 µM: CHO, 5 min, agonist-induced Ca2+ mobilization (FLIPR), CHO cells with rat UII receptor; for inhibition at 10 µM: 10 μM compound, read-out: % I @ 10; for inhibition at 50 µM: 50 μM compound, read-out: % I @ 50
T1 construct: expressed in transfected cells
T1 sequence (P49684 1-386): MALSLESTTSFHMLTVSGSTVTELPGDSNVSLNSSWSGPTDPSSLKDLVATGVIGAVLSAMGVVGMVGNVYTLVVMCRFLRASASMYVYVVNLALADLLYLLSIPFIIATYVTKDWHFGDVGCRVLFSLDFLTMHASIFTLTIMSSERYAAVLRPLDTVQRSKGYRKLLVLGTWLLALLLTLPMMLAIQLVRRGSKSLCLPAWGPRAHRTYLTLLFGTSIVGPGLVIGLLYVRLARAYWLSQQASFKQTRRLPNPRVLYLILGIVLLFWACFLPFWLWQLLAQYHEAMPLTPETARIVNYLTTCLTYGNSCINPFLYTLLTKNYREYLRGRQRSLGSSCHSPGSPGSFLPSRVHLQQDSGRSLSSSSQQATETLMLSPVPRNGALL
In short: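 Fluorescent calcium signals were recorded at room temperature (23° C) by FLIPR. Stable rat U-II receptor CHO lines had been dye-loaded for 1 h at 37° C in pH 7.4 HBSS containing 20 mM HEPES, 0.1% BSA and 2.5 mM probenecid.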

[2] = molecular target: T2, Human UII receptor, 6D9 human rhabdomyosarcoma cells (Homo sapiens, UniProt Q9UKP6); test: Human UII Calcium Mobilization Assay; format: cell-based; settings: average value, FLIPR TETRA, read-out: Human UII Ca^+ Mobilization Average IC50
T2 construct: 6D9: isolated by dilution subcloning of RMS13 cells, ATCC® Number: CRL-2061; host or cells: 6D9 human rhabdomyosarcoma cells (subclone of RMS13)
T2 sequence (Q9UKP6 1-389): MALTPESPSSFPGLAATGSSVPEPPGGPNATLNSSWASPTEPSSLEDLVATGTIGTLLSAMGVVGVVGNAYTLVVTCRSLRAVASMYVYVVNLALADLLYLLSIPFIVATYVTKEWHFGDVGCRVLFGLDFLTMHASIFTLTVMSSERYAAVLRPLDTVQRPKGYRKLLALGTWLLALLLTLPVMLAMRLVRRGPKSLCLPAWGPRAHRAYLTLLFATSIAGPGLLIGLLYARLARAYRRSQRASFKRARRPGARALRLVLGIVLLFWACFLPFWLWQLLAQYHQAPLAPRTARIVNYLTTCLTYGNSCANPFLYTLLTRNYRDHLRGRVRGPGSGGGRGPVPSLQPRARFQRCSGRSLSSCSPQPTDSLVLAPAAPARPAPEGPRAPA
Procedure: 6D9 human rhabdomyosarcoma cells were seeded into tissue culture treated 384-well black-walled clear bottom plates (3712, Corning Incorporated, Corning, N.Y.) at 8,000 cells/well in 25 μL of culture medium, and maintained in an incubator (5% CO2 at 37° C.) for 22 hrs prior to the calcium mobilization assay. 25 μL of dye solution was added to the wells such that the final liquid volume before agonist/antagonist treatment was 50 μL for all assays. The cell plates were incubated at 37° C. for 45 minutes and the fluorescence intensity was measured on a Fluorometric Imaging Plate Reader (FLIPR^TETRA, Molecular Devices, Sunnyvale, Calif.).
Antagonist and agonist U-II were added at room temperature on the FLIPR^TETRA, and the fluorescence intensity before and after addition was measured over a period of 4 minutes. The dye incubation time and temperature as well as instrument setting was adjusted so the fluorescence intensity could be compared between plates on the same day. EC50 and IC50 were analyzed using GraphPad Prism 4 software (GraphPad Software Inc., San Diego, Calif.).
Materials and reagent Preparation: Human Rhabdomyosarcoma cells (6D9: isolated by dilution subcloning of RMS13 cells, ATCC® Number: CRL-2061, American Type Culture Collection ATCC, Manassas, Va.) was maintained in RPMI-1640 medium (30-2001, ATCC, Manassas, Va.) supplemented with 10% (v/v) Fetal Bovine Serum (SH30071.03, Hyclone, Logan, Utah).
Dye preparation: BD™ Calcium Assay Kit (80500-301, BD Biosciences, Rockville, Md.) was prepared according to the manufacture's instruction in 1× Hanks' balanced salt solution (HBSS, 21-023-CV, Mediatech, Inc. Herndon, Va.) containing 20 mM HEPES buffer (25-060-CI, Mediatech, Inc. Herndon, Va.). Final dye loading conditions included 1.25 mM probenecid (P36400, Invitrogen, Carlsbad, Calif.) and 0.01% FBS.
Urantide (PUT-3639-PI, Peptide International, Louisville, Ky.) was prepared in water at 5 mM. For assays, U-II agonist, U-II antagonist and urantide were diluted with HBSS/HEPES containing 0.01% FBS.
Test compounds were dissolved in DMSO at 10 mM concentration. The serial dilutions were carried out in HBSS/HEPES. The highest final DMSO concentration was at 0.1%.

[3] = molecular target: T3, endogenous human UII receptor (Homo sapiens, UniProt Q9UKP6); test: Human Radioligand Binding Assay ((^125I)-U-II binding to human skeletal muscle myoblasts)
T3 sequence (Q9UKP6 1-389): T2 sequence (Q9UKP6 1-389)

[4] = average value for the compound tested, read-out: Rat UII FLIPR Average IC50
[5] = Inhibition of Acetyl-cyclic[Cys-Phe-Trp-Lys-(2-Nal)-Cys]-NH2 induced Ca2+ mobilization (FLIPR) in CHO cells transfected with rat UII receptor, read-out: IC50
[6] = Inhibition of human UII binding to human skeletal muscle myoblasts containing endogenous human UII receptor

| SMILES | IC50 [1, 4] [nM] | IC50 [2] [nM] | Ki [3] [nM] | inhibition at 10 µM [1] [%] | inhibition at 50 µM [1] [%] | IC50 [1, 5] [nM] | Ki [3, 6] [nM] |
| --- | --- | --- | --- | --- | --- | --- | --- |
| COc1ccc([C@@H](CCCNC(=O)C(C)C)N2C(=O)c3cccc(OC4CCN(C)C4)c3C2=O)cc1OC (stereo partly drawn) [Cpd 200, (R)-N-{4-(3,4-dimethoxy-phenyl)-4-[4-(1-methyl-pyrrolidin-3-yloxy)-1,3-dioxo-1,3-dihydro-isoindol-2-yl]-butyl}-isobutyramide] | 4000 | > 10000 |  |  |  |  |  |
| CCN1CCN(c2cccc3c2C(=O)N([C@H](CCCOS(=O)(=O)c2cccs2)c2ccc(OC)c(OC)c2)C3=O)CC1 [Cpd 208, (R)-thiophene-2-sulfonic acid 4-(3,4-dimethoxy-phenyl)-4-[4-(4-ethyl-piperazin-1-yl)-1,3-dioxo-1,3-dihydro-isoindol-2-yl]-butyl ester] | 320 | 4500 |  |  |  |  |  |
| COc1ccc(CN2C(=O)c3cccc(N4CCN(Cc5cccnc5)CC4)c3C2=O)cc1OC [Cpd 79, 2-(3,4-dimethoxy-benzyl)-4-(4-pyridin-3-ylmethyl-piperazin-1-yl)-isoindole-1,3-dione] | 1200 |  | > 10000 |  |  |  |  |
| COc1ccc([C@H](C)N2C(=O)c3cccc(N4CCN([C@H](C)c5ccccc5)CC4)c3C2=O)cc1OC [Cpd 3, 2-[(S)-1-(3,4-dimethoxy-phenyl)-ethyl]-4-[4-(1R)-(1-phenyl-ethyl)-piperazin-1-yl]-isoindole-1,3-dione] |  |  |  | 100 | 101 | 130 | 160 |
| COc1ccc(CN2C(=O)c3cccc(N4CCN(CC5CCCC5)CC4)c3C2=O)cc1OC [Cpd 80, 4-(4-cyclopentylmethyl-piperazin-1-yl)-2-(3,4-dimethoxy-benzyl)-isoindole-1,3-dione] | 1300 |  | > 10000 |  |  |  |  |
| COc1cc(CN2C(=O)c3cccc(N4CCN([C@H](C)c5ccccc5)CC4)c3C2=O)ccc1O [Cpd 15, 2-(4-hydroxy-3-methoxy-benzyl)-4-[4-(1R)-(1-phenyl-ethyl)-piperazin-1-yl]-isoindole-1,3-dione] |  |  | 5200 | 100 | 100 | 820 |  |
| COc1ccc(C(CCCNC(=O)OC(C)(C)C)N2C(=O)c3cccc(N4CCN([C@H](C)c5ccccc5)CC4)c3C2=O)cc1OC (stereo partly drawn) [Cpd 65, (4-(3,4-dimethoxy-phenyl)-4-{1,3-dioxo-4-[4-(1R)-(1-phenyl-ethyl)-piperazin-1-yl]-1,3-dihydro-isoindol-2-yl}-butyl)-carbamic acid tert-butyl ester] |  |  |  | 103 | 102 | 200 | 200 |
| COc1ccc(CN2C(=O)c3cccc(N4CCN(Cc5ccc(C)o5)CC4)c3C2=O)cc1OC [Cpd 77, 2-(3,4-dimethoxy-benzyl)-4-[4-(5-methyl-furan-2-ylmethyl)-piperazin-1-yl]-isoindole-1,3-dione] | 850 |  | 7200 |  |  |  |  |
| COc1ccc(CN2C(=O)c3cccc(N4CCN(Cc5cccs5)CC4)c3C2=O)cc1OC [Cpd 81, 2-(3,4-dimethoxy-benzyl)-4-(4-thiophen-2-ylmethyl-piperazin-1-yl)-isoindole-1,3-dione] | 1400 |  | > 10000 |  |  |  |  |
| COc1ccc(CN2C(=O)c3cccc(N4CCN(Cc5cccc(F)c5)CC4)c3C2=O)cc1OC [Cpd 17, 2-(3,4-dimethoxy-benzyl)-4-[4-(3-fluoro-benzyl)-piperazin-1-yl]-isoindole-1,3-dione] |  |  | 3500 | 99 | 101 | 1100 |  |
| CCOc1ccc(CN2C(=O)c3cccc(N4CCN([C@H](C)c5ccccc5)CC4)c3C2=O)cc1OC [Cpd 18, 2-(4-ethoxy-3-methoxy-benzyl)-4-[4-(1R)-(1-phenyl-ethyl)-piperazin-1-yl]-isoindole-1,3-dione] |  |  | 2900 | 98 | 101 | 1400 |  |

The next lines start with the values.

| IC50 [1, 4] [nM] | IC50 [2] [nM] | Ki [3] [nM] | inhibition at 10 µM [1] [%] | inhibition at 50 µM [1] [%] | IC50 [1, 5] [nM] | Ki [3, 6] [nM] | SMILES |
| --- | --- | --- | --- | --- | --- | --- | --- |
| 35 | 590 |  |  |  |  |  | COc1ccc(C(CCNC(=O)Cc2ccncc2)N2C(=O)c3cccc(N4CCN([C@H](C)c5ccccc5)CC4)c3C2=O)cc1OC (stereo partly drawn) [Cpd 103, N-(3-(3,4-dimethoxy-phenyl)-3-{1,3-dioxo-4-[4-(1R)-(1-phenyl-ethyl)-piperazin-1-yl]-1,3-dihydro-isoindol-2-yl}-propyl)-2-pyridin-4-yl-acetamide] |
| 6.4 | 350 |  |  |  |  |  | COc1ccc([C@@H](CCCNS(=O)(=O)c2cnc(C)n2C)N2C(=O)c3cccc(N4CCN([C@H](C)c5ccccc5)CC4)c3C2=O)cc1OC [Cpd 127, (R)-2,3-dimethyl-3H-imidazole-4-sulfonic acid (4-(3,4-dimethoxy-phenyl)-4-{1,3-dioxo-4-[4-(1R)-(1-phenyl-ethyl)-piperazin-1-yl]-1,3-dihydro-isoindol-2-yl}-butyl)-amide] |
| 97 | 1100 |  |  |  |  |  | COc1ccc([C@@H](CCCNc2ccccn2)N2C(=O)c3cccc(N4CCN([C@H](C)c5ccccc5)CC4)c3C2=O)cc1OC [Cpd 142, (R)-2-[1-(3,4-dimethoxy-phenyl)-4-(pyridin-2-ylamino)-butyl]-4-[4-(1R)-(1-phenyl-ethyl)-piperazin-1-yl]-isoindole-1,3-dione] |
| 290 |  | 1300 |  |  |  |  | C/C=C(\C)CN1CCN(c2cccc3c2C(=O)N(Cc2ccc(OC)c(OC)c2)C3=O)CC1 [Cpd 86, (E)-2-(3,4-dimethoxy-benzyl)-4-[4-(2-methyl-but-2-enyl)-piperazin-1-yl]-isoindole-1,3-dione] |
| 56 |  | 190 |  |  |  |  | COc1ccc([C@@H](CCCNS(=O)(=O)c2cn(C)nc2C(F)(F)F)N2C(=O)c3cccc(N4CCN([C@H](C)c5ccccc5)CC4)c3C2=O)cc1OC [Cpd 135, (R)-1-methyl-3-trifluoromethyl-1H-pyrazole-4-sulfonic acid (4-(3,4-dimethoxy-phenyl)-4-{1,3-dioxo-4-[4-(1R)-(1-phenyl-ethyl)-piperazin-1-yl]-1,3-dihydro-isoindol-2-yl}-butyl)-amide] |
| 81 |  | 340 |  |  |  |  | COc1ccc([C@@H](CCCNS(=O)(=O)c2ccc(C)s2)N2C(=O)c3cccc(N4CCN([C@H](C)c5ccccc5)CC4)c3C2=O)cc1OC [Cpd 126, (R)-5-methyl-thiophene-2-sulfonic acid (4-(3,4-dimethoxy-phenyl)-4-{1,3-dioxo-4-[4-(1R)-(1-phenyl-ethyl)-piperazin-1-yl]-1,3-dihydro-isoindol-2-yl}-butyl)-amide] |
